13 molecules from ChEMBL document CHEMBL1128846, “Synthesis and pharmacological activity of conformationally restricted, acetylenic retinoid analogs” (Bioorg Med Chem Lett, 1995) can be followed below.

By EC50 is commonly meant the concentration that produces a half-maximal response. Read a high EC50 as a less potent agent.

One test concerns Mus musculus. Nature of the test: In vivo inhibition of TPA-induced ornithine decarboxylase (ODC) activity in hairless mouse skin. It is filed as functional.
Test [1] addresses T1, Retinoic acid receptor beta (Homo sapiens, UniProt P10826).
T1 sequence (P10826 whole entry): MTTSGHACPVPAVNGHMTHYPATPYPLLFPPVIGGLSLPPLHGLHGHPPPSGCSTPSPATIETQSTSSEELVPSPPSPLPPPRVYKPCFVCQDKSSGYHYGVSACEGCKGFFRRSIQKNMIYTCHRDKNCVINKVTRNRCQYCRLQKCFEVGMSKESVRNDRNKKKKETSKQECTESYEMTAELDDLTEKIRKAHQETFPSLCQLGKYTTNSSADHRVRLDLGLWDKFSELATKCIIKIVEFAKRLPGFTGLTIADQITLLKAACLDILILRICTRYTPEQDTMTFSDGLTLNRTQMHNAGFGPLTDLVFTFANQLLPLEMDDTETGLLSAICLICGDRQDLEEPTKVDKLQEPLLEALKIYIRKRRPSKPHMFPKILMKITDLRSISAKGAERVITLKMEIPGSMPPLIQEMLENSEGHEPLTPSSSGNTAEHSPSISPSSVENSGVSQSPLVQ
Kind of test: Transcriptional activation of retinoic acid receptor RAR beta; not active.

Test [2] has as its target T2, Retinoic acid receptor alpha (Homo sapiens, UniProt P10276).
T2 sequence (P10276 whole entry): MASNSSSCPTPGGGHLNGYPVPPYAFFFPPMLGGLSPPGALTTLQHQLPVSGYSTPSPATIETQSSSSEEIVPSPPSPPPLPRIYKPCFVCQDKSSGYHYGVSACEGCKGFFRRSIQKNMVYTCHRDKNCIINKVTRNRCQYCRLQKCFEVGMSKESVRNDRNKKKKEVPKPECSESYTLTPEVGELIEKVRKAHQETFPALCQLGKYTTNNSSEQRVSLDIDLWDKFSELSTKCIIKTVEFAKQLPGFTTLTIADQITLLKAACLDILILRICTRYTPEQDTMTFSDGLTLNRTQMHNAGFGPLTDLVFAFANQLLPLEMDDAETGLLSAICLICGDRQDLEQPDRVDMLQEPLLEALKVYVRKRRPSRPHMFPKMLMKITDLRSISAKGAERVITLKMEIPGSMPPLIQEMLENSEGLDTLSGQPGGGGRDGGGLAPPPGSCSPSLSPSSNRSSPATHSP
Nature of the test: Transcriptional activation of retinoic acid receptor RAR alpha; not active.

Test [3] concerns the target T3, Retinoic acid receptor gamma (Homo sapiens, UniProt P13631).
T3 sequence (P13631 whole entry): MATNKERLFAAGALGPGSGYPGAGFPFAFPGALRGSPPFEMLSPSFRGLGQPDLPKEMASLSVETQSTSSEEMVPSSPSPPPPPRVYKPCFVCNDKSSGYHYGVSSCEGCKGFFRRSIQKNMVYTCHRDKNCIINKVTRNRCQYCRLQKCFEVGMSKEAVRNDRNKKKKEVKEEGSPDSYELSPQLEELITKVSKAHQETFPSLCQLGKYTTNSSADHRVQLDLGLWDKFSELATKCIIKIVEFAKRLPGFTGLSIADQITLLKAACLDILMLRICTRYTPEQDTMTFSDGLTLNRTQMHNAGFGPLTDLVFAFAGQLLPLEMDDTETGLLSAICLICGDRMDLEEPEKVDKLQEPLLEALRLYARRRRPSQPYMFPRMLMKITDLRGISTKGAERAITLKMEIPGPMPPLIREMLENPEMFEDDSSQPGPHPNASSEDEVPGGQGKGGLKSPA
Nature of the test: Transcriptional activation of retinoic acid receptor RAR gamma; not active.

The target in test [4] is T4, Retinoic acid receptor RXR-alpha (Homo sapiens, UniProt P19793).
T4 sequence (P19793 whole entry): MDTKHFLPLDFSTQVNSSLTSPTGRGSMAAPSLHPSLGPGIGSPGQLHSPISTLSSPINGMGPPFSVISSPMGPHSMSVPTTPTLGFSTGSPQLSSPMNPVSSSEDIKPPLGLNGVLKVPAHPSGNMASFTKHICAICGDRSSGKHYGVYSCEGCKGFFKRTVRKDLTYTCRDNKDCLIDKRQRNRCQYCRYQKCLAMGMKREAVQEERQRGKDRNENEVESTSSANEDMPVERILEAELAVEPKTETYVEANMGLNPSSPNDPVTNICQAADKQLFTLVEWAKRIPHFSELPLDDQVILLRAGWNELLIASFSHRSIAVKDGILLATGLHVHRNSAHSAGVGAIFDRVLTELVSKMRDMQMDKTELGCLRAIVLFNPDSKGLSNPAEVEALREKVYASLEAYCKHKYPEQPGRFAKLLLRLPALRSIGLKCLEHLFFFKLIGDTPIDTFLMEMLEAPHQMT
Kind of test: Transcriptional activation of retinoid X receptor RXR alpha; not active.

In test [5] the target is T1, Retinoic acid receptor beta. Nature of the test: (§1) Transcriptional activation of retinoic acid receptor RAR beta.
The target of test [6] is T3, Retinoic acid receptor gamma. Kind of test: Transcriptional activation of retinoic acid receptor RAR gamma.
Test [7] concerns the target T1, Retinoic acid receptor beta. The description is as §1. This is another data set of the same source.
The target of test [8] is T2, Retinoic acid receptor alpha. Nature of the test: Transcriptional activation of retinoic acid receptor RAR alpha.

For `CCOC(=O)c1ccc(C#C/C=C/C2=C(C)CCCC2(C)C)s1`, the IC80 in the test with Mus musculus worked out at 30 nmol.
In the test on Mus musculus, `CC1=C(/C=C/C#Cc2ccccc2C(=O)O)C(C)(C)CCC1` showed an IC80 of over 1000 nmol. Also, the EC50 in [1], in test [2], in test [3] and in test [4] was over 10 µM each time.
Molecule `CCOC(=O)c1ccccc1C#C/C=C/C1=C(C)CCCC1(C)C` displayed an IC80 with Mus musculus of over 1000 nmol.
With `CC1=C(/C=C/C#Cc2cccc(C(=O)O)c2)C(C)(C)CCC1`, the IC80 with Mus musculus amounted to 890 nmol. The EC50 in test [1], in [2], in test [3] and in [4] was over 10 µM throughout.
`CC1=C(/C=C/C#Cc2ccc(C(=O)O)cn2)C(C)(C)CCC1` came in with an IC80 with Mus musculus of 14.8 nmol. Further, the EC50 in test [5] was over 0.005 µM; in test [2], over 10 µM; in test [6], over 0.015 µM.
In the case of `CCOC(=O)c1ccc(C#C/C=C/C2=C(C)CCCC2(C)C)o1`, the IC80 in the test on Mus musculus was over 300 nmol.
In the test with Mus musculus, `CCOC(=O)c1ccc2cc(C#CC3=C(C)CCCC3(C)C)ccc2c1` registered an IC80 of 131 nmol.
In the test on Mus musculus, `CCOC(=O)c1ccc(C#C/C=C/C2=C(C)CCCC2(C)C)nc1` came in with an IC80 of 5.3 nmol.
In the test with Mus musculus, `CCOC(=O)c1cccc(C#C/C=C/C2=C(C)CCCC2(C)C)c1` gave an IC80 of over 1000 nmol.
For the molecule `CC1=C(C#Cc2ccc3cc(C(=O)O)ccc3c2)C(C)(C)CCC1`, in the test with Mus musculus, the IC80 came to 215 nmol. Further, the EC50 in test [5] was 0.355 µM; in test [7], 0.93 µM; in test [2], over 10 µM; in [4] it was over 10 µM.
In the test on Mus musculus, `CC1=C(/C=C/C#Cc2ccc(C(=O)O)cc2)C(C)(C)CCC1` yielded an IC80 of 0.46 nmol. Further, the EC50 was 0.002 µM in test [5], 0.598 µM in [8], 0.01 µM in test [6] and 10 µM in test [4].
The molecule `C/C(=C\c1ccc(C(=O)O)cc1)c1ccc2c(c1)C(C)(C)CCC2(C)C` showed a concentration giving a half-maximal response (EC50) in [4] of 10 µM.
`CCOC(=O)c1ccc(C#C/C=C/C2=C(C)CCCC2(C)C)cc1` showed an IC80 in the test with Mus musculus of 1.3 nmol.
